# Like-named read-outs stand apart in the source and are kept apart here.
# How the values were obtained:
# [1] = Single-ascending dose pharmacokinetic study: plasma THC after a 3 second inhalation from the vaporizer device; format: in vivo, human; conditions: for AUC(0-inf) / Tmax / Cmax: human, plasma, inhaled, single inhalation, mean ± SD; for Cmax: read-out: Δ^9-THC Cmax
# Method: A study was conducted to investigate the pharmacokinetics, efficacy, safety, and ease of use of a vaporizer device of the present technology for treating disorders in humans. Volunteers were recruited for participation in the study and met the following inclusion criteria: (a) age >30 and <70 years; (b) no known medical problems; and (c) if applicable, negative urine pregnancy test (β human […] gonadotropin pregnancy test). Exclusion criteria were the presence of (a) significant cardiac or pulmonary disease, (b) history of a psychotic or anxiety disorder, (c) pregnancy, pregnancy attempt or breastfeeding, (d) presence of a neuropathic or non-neuropathic pain disorder, (e) low systolic blood pressure, ([…]) (f) diabetes (g) first degree family history of psychotic or anxiety disorder, (h) history of drug addiction, (i) history of drug misuse, (j) concurrent use the following drugs: rifampicin, rifabutin, carbamazepine, or phenobarbital, primidone, (k) using the following plants: Hypericum perforatum, troglitazone, (l) alcohol consumption up to 12 hours prior to the study, (m) abnormal parameters such as heart rate above 100 BPM, blood pressure below 90 mm Hg (systolic), saturation below 91 percent, (n) recreational Cannabis use up to 72 hours before the study, (o) any chronic use of drugs, and (q) age less than 30 or more than 70.
# The participants were divided into four dose related groups each group included 3 volunteers. After 3 successful training inhalations, each participant inhaled 3 seconds of a single dose. Dose groups were 10±0.1 mg, 15±0.1 mg, 20±0.1 mg, 25±0.1 mg of THC.
# Blood samples were drawn immediately before and at 2, 3, 4, 10, 30 minutes after inhalation for monitoring of plasma levels of THC and its active metabolite Δ^9 Carboxy-THC. The blood was collected in 13×75 mm purple-top Vacutainer tubes containing EDTA. Samples were kept on ice and centrifuged within 30 minutes. Plasma samples were aliquoted into 3.6-mL polypropylene Nunc cryotubes (Thomas Scientific, NJ, USA), stored frozen at −20° C., and analyzed within 6 weeks. The cannabinoid analysis was performed at Pactox (Pacific Toxicology Laboratories) Labs by multidimensional gas chromatography mass spectrometry method.
# The study device was as described above in connection with the figures and designed to vaporize up to 80 doses of processed cannabis fibs, resulting in the pulmonary delivery of compounds. The inhaler consisted of a multi-dose cartridge, indication light, and power switch. The cartridge was preloaded with multiple pre-weighed 10.0±0.1 mg, 15.0±0.1 mg, 20.0±0.1 mg, and 25.0±0.1 mg doses of processed cannabis flos. The vaporization process was segmental and triggered by the volunteer pressing the operating button. The segmental evaporation process is aimed at turning THCA into THC^1 and is done by: (1) stage I—heating the material to 100° C. for 9 seconds; (2) stage II—heating the material to 150° C. for 9 seconds; (3) stage III—heating the material to 190° C. to 200° C. (evaporation temperature) for the 3 seconds of inhalation. The transition to the next dose/inhalation is performed by using a mechanical rotation wheel. The device engages automatic thermal control that ensures a complete, high-efficiency delivery of carmabinoid vapors to the lungs. The device allowed for “single inhalation” dose resolution, instantaneous administration, and required no preprocessing or any subject intervention other than the inhalation itself.
# The cannabis flowers used in the study were of the Alaska strain provided by “Tikun Olam.” This strain is a hybrid of 70% sativa and 30% indica strains. This strain consists of 20-22% THC and 0% CBD. The processed cannabis flowers used in this study were tested for THC by modified gas-chromatography method without derivatization 1.8 resulting in Δ^9-THC content of 20.08%. The flowers were loaded into the inhaler so as to retain the natural cannabis compounds in. their raw form. […]
# [2] = Short Blessed Test cognitive status evaluation; format: in vivo, human; conditions: for SET 0 min (Short Blessed Test score): 0 min (prior to inhalation); for SET 0 min (Short Blessed Test score) / SET 30 min (Short Blessed Test score) / SET 120 min (Short Blessed Test score): mean; for SET 30 min (Short Blessed Test score): 30 min after inhalation
# Method: (§1) Blood pressure, pulse rate, and oxygen saturation were also recorded at baseline, 30, 60, 90, and 120 minutes post inhalation. A cognitive test was conducted using the Short Blessed Test prior to the experiment at 30, 60 minutes after inhalation and at the end of the experiment.
# (§2) The primary outcome of the study was to characterize the inter-individual variability of Δ^9-THC during the absorption phase. The secondary outcome included (a) monitoring adverse effects, (b) blood pressure, and heart rate; and (c) monitoring the response of single-ascending dose with the use of the study device. In addition, the influence of the use of the trial device on the cognitive status of the subject was assessed. A Short Blessed Test cognitive test^19 was used for the purpose of the trial.
# The Short Blessed Test, a six-item test, was used as a diagnostic tool enabling the cognitive status evaluation of the volunteers. Each item was scored and total scores were calculated on the following cut off points: Normal or minimally impaired: 0-8, Moderately impaired: 9-19, Severely impaired: 20-33.
# [3] = intravenous THC administration, cited from earlier work
# [4] = Blood pressure, pulse rate and oxygen saturation after inhalation; format: in vivo, human; conditions: for DBP (diastolic blood pressure) / HR (heart rate) / SBP (systolic blood pressure) / SO2 (blood oxygen saturation): mean value
# Method: as §1, §2
# [5] = ascending doses 10-25 mg, inhalation
smiles,measurement,setting,value
"CCCCCc1cc(O)c2c(c1)OC(C)(C)[C@@H]1CCC(C)=C[C@@H]21 [THC, tetrahydrocannabinol]",change in time needed to reach maximum concentration with ascending doses,[1]; [5],no significant change
same,change of AUC with ascending doses,[1]; [5],same linear increase
same,change of maximum concentration with ascending doses,[1]; [5],linear increase
same,AUC(0-inf),"[1]; 0.1 mg, Group IV, 25 ± 0.1 mg",16.2 ng·h/mL
same,Tmax,"[1]; 0.1 mg, Group IV, 25 ± 0.1 mg",3 min
same,Cmax,"[1]; 0.1 mg, Group IV, 25 ± 0.1 mg",88.6 ± 14.8 ng/mL
same,AUC(0-inf),"[1]; Group I, 10 ± 0.1 mg",7.36 ng·h/mL
same,Tmax,"[1]; Group I, 10 ± 0.1 mg",3.67 min
same,Cmax,"[1]; Group I, 10 ± 0.1 mg",35.4 ± 5.97 ng/mL
same,AUC(0-inf),"[1]; Group II, 15 ± 0.1 mg",10.4 ng·h/mL
same,Tmax,"[1]; Group II, 15 ± 0.1 mg",3.33 min
same,Cmax,"[1]; Group II, 15 ± 0.1 mg",51.5 ± 13.8 ng/mL
same,AUC(0-inf),"[1]; Group III, 20 ± 0.1 mg",11.6 ng·h/mL
same,Tmax,"[1]; Group III, 20 ± 0.1 mg",2.67 min
same,Cmax,"[1]; Group III, 20 ± 0.1 mg",72.4 ± 15.9 ng/mL
same,SET 0 min (Short Blessed Test score),[2]; 10 mg dose group,0.66 ± 0.94
same,SET 30 min (Short Blessed Test score),[2]; 10 mg dose group,2.33 ± 3.29
same,SET 120 min (Short Blessed Test score),[2]; 10 mg dose group,2.66 ± 0.47
same,SET 0 min (Short Blessed Test score),[2]; 15 mg dose group,0
same,SET 30 min (Short Blessed Test score),[2]; 15 mg dose group,1.33 ± 1.88
same,SET 120 min (Short Blessed Test score),[2]; 15 mg dose group,3 ± 0.81
same,SET 0 min (Short Blessed Test score),[2]; 20 mg dose group,2 ± 1.63
same,SET 30 min (Short Blessed Test score),[2]; 20 mg dose group,0.66 ± 0.94
same,SET 120 min (Short Blessed Test score),[2]; 20 mg dose group,0.66 ± 0.94
same,SET 0 min (Short Blessed Test score),[2]; 25 mg dose group,2 ± 2.82
same,SET 30 min (Short Blessed Test score),[2]; 25 mg dose group,0
same,SET 120 min (Short Blessed Test score),[2]; 25 mg dose group,0
same,cognitive impairment (Short Blessed Test),"[2]; all volunteers, 0-8 normal or minimally impaired",minimal cognitive impairment
same,Cmax of Δ^9-THC,[3]; Reference 1,43.8 ng/mL
same,Cmax of Δ^9-THC,[3]; Reference 2,32.8 ng/mL
same,Cmax of Δ^9-THC,[3]; Reference 3,23.8 ng/mL
same,DBP (diastolic blood pressure),[4]; 10 mg dose group,69.46 ± 7.86 mmHg
same,HR (heart rate),[4]; 10 mg dose group,71.66 ± 10.14
same,SBP (systolic blood pressure),[4]; 10 mg dose group,113.4 ± 10.23 mmHg
same,SO2 (blood oxygen saturation),[4]; 10 mg dose group,99.93 ± 0.25%
same,DBP (diastolic blood pressure),[4]; 15 mg dose group,63.85 ± 9.78 mmHg
same,HR (heart rate),[4]; 15 mg dose group,79 ± 13.37
same,SBP (systolic blood pressure),[4]; 15 mg dose group,114.93 ± 6.88 mmHg
same,SO2 (blood oxygen saturation),[4]; 15 mg dose group,100%
same,DBP (diastolic blood pressure),[4]; 20 mg dose group,71.78 ± 14.95 mmHg
same,HR (heart rate),[4]; 20 mg dose group,68.35 ± 5.83
same,SBP (systolic blood pressure),[4]; 20 mg dose group,120.14 ± 28.03 mmHg
same,SO2 (blood oxygen saturation),[4]; 20 mg dose group,99.92 ± 0.26%
same,DBP (diastolic blood pressure),[4]; 25 mg dose group,80.57 ± 8.92 mmHg
same,HR (heart rate),[4]; 25 mg dose group,77.57 ± 17.74
same,SBP (systolic blood pressure),[4]; 25 mg dose group,130 ± 16.62 mmHg
same,SO2 (blood oxygen saturation),[4]; 25 mg dose group,99.42 ± 0.9%
same,"change in blood pressure, heart rate, or blood oxygen saturation","[4]; during the time frame of the study, all dose groups",no significant change
